Measurements: PMC11986180, “ZIF-8 Selective Dispersive Solid-Phase Extraction-LC-MS/MS Method for the Determination of Aconitine alkaloids in Rat Plasma: Application in Pharmacokinetic Studies” (Journal of Analytical Methods in Chemistry, 2025)
Like-named read-outs stand apart in the source and are kept apart here.

Legend:
[1] = type: physicochemical, rat
Experimental: Aconitine, hypaconitine, mesaconitine, lappaconitine, benzoylaconitine, and yohimbine were individually dissolved in 10 mL of methanol to prepare the stock solution. These compounds were subsequently diluted with methanol to achieve final concentrations of 10 and 5.0 μg/mL to prepare the working standard solutions, which were stored at 4°C before use. Under the optimized conditions, 10 μL of the working standard solution and IS (5.0 μg/mL), along with 15 mg of ZIF-8, was added to 200 μL of blank rat plasma and various blank tissue homogenates. The final concentrations of the calibration standard samples were 0.3125, 0.625, 1.5625, 3.125, 6.25, 12.5, 25, 50, 100, 500, and 1000 ng/mL. Plasma quality control (QC) samples were prepared at concentrations of 0.625, 6.25, 10, and 50 ng/mL. Standard calibration samples and HPLC–MS samples were stored at −20°C until analysis.
Stability tests were conducted to replicate real-world conditions that samples are likely to encounter. […]

[2] = Pharmacokinetics of aconitine alkaloids in rat plasma after oral administration of Fuzi extract (d-SPE-LC-MS/MS); type: in vivo, Sprague–Dawley rats; details: for AUC(0-inf) / AUC(0-t) / half-life / MRT last / MRT inf / Tmax: n = 6, oral (gastric gavage) 10 mg/kg Fuzi extract; for half-life: one-compartment model; for MRT last: read-out: MRT0-t; for MRT inf: read-out: MRT0-∞; for Cmax: oral 10 mg/kg Fuzi extract, read-out: maximum concentrations (Cmax); for Tmax: 10 mg/kg
Experimental: Male Sprague–Dawley rats (250–300 g, 8–10 weeks old) were procured from Shenzhen Bao'an Authentic TCM Therapy Hospital (Guangzhou, China) and acclimatized in a controlled environment (temperature: 25°C ± 2°C; humidity: 50% ± 5%; 12-h dark–light cycle) for at least 3 days before experimentation (Animal License Number: SCXK [Guangdong] 2022-0002). Laboratory animal compound feed (Guangdong Feeding Certificate: 2019, No. 05,073) was provided. All animal experiments were performed in accordance with the Guide for the Care and Use of Laboratory Animals by the National Institutes of Health. Ethical approval for the animal studies was obtained from the Ethics Committee of Sinopharm Dongfeng General Hospital. The animal protocols used in this study were approved by the Institutional Animal Care and Use Committee of Sinopharm Dongfeng General Hospital.
The crude powder of Fuzi (50 g) was decocted in 500 mL of water for 1 h to obtain the crude extract, which was then concentrated to 100 mL and stored at 4°C.
All rats were maintained under standard conditions with ad libitum access to food and water. They were divided into two groups: Group 1 was used to prepare blank plasma samples, and Group 2 was designated for pharmacokinetic studies. Drug-free rat plasma was collected via suborbital venous hemorrhage. Pharmacokinetic studies involved continuous blood sampling from the suborbital venous plexus, as described previously. Each rat was administered a 10 mg/kg dose of Fuzi extract via gastric gavage. Blood samples (200 μL) were collected at […] time points (0, 0.25, 0.50, 0.75, 1.0, 2.0, 3.0, 4.0, 6.0, 8.0, 10, 12, and 24 h postadministration) for pharmacokinetic analysis. The samples were collected into microtubes containing 5 μL of heparin, followed by centrifugation at 4000 rpm for 10 min. The resulting plasma ([…]) was separated and immediately frozen at −20°C for further analysis. Figure 2 illustrates the typical d-SPE–LC/MS profile of blank plasma and aconitine alkaloids, showing distinct peaks in rat plasma at 1 h postadministration without interference from endogenous peaks, thus maintaining a stable baseline for analyte and IS detection.
Before solid-phase extraction, ZIF-8 was activated by placing it in a vacuum-drying oven at 60°C for 24 h to remove surface-adsorbed water and other volatile substances. Rat plasma (100 μL) was combined with 350 μL of a 50% acetonitrile–water solution and 50 μL of yohimbine (IS). Following this, 15 mg of ZIF-8 was added to the mixture, which was then shaken for 18 min for extraction. After centrifugation, the adsorbent remained in the tube while the supernatant was discarded. Subsequently, 1000 μL of methanol was added to the tube, and ultrasonic elution of the nanocomposite was performed for 5 min. After centrifugation to collect the ZIF-8 nanocomposites, 900 μL of the eluent was evaporated using N2 flow at 40°C. The resulting residue was redissolved in 50 μL of methanol to obtain the final sample solution and analyzed by HPLC–MS/MS. The extraction process for aconitine alkaloids is depicted in Figure 3.
The pharmacokinetic parameters of aconitine alkaloids in rats were calculated using Phoenix WinNonlin 8.3 software. The maximum plasma concentration (Cmax) and the time to reach Cmax (Tmax) were directly derived from the experimental data. The elimination rate constant (Ke) was determined by linear regression of the terminal semilogarithmic plot of plasma concentration versus time, and the elimination half-life (t1/2) was calculated as 0.693/Ke. All data are presented as mean ± standard deviation.
The plasma concentrations of five aconitine alkaloid species from Fuzi were quantified using the present method. The peak plasma concentrations of aconitine, hypaconitine, mesaconitine, lappaconitine, and benzoylaconitine were reached within 0.75 h, indicating rapid absorption into the systemic circulation. […]

[3] = Automatic (24 h), plasma QC 6.25 ng/mL
[4] = Automatic (24 h), plasma QC 50 ng/mL
[5] = Freeze (−80°C for 30 d), plasma QC 6.25 ng/mL
[6] = Freeze (−80°C for 30 d), plasma QC 50 ng/mL
[7] = Freeze-thaw (three times), plasma QC 6.25 ng/mL
[8] = Freeze-thaw (three times), plasma QC 50 ng/mL
[9] = Room temperature (8 h), plasma QC 6.25 ng/mL
[10] = Room temperature (8 h), plasma QC 50 ng/mL
[11] = male, Sprague-Dawley, rat, plasma, po, read-out: Tmax

Compound | Stability RE % [1, 3] [%] | Stability RE % [1, 4] [%] | Stability RE % [1, 5] [%] | Stability RE % [1, 6] [%] | Stability RE % [1, 7] [%] | Stability RE % [1, 8] [%] | Stability RE % [1, 9] [%] | Stability RE % [1, 10] [%] | AUC(0-inf) ([2]; male, Sprague-Dawley) [ng·h/mL] | AUC(0-t) ([2]; male, Sprague-Dawley) [ng·h/mL] | half-life ([2]; male, Sprague-Dawley) [h] | MRT last ([2]; male, Sprague-Dawley) [h] | MRT inf ([2]; male, Sprague-Dawley) [h] | Cmax ([2]; male, Sprague-Dawley) [ng/mL] | Tmax [2, 11] [h] | Tmax [2] [h] | other results
CCN1C[C@]2(COC)[C@H](O)C[C@H](OC)[C@@]34[C@@H]5C[C@@]6(O)[C@H](OC(=O)c7ccccc7)[C@@H]5[C@@](OC(C)=O)([C@@H]([C@H](OC)[C@H]23)[C@@H]14)[C@@H](O)[C@@H]6OC [Aconitine] | 4.19 | −10.01 | 4.94 | −9.37 | 3.96 | −8.46 | −1.08 | −8.69 | 26.9 ± 0.696 | 25.3 ± 0.566 | 5.77 ± 0.348 | 7.11 ± 0.143 | 8.59 ± 0.349 | 7.47 ± 0.732 | ≤ 0.75 | 0.5 | 
CCN1CC2(COC)C(O)CC(OC)C34C5CC6(O)C(OC)C(O)C(O)(C5C6OC(=O)c5ccccc5)C(C(OC)C23)C14 (stereo not shown) [Benzoylaconitine] | −8.67 | −9.65 | −7.70 | −10.48 | −6.91 | −10.57 | −7.89 | −7.98 | 14.1 ± 9.31 | 3.76 ± 0.0401 | 62.4 ± 57.4 | 9.95 ± 0.374 | 87.9 ± 79.7 | 0.939 ± 0.199 |  | 0.25 | 
COC[C@@]12CC[C@H](OC)[C@]34C(C([C@H](OC)[C@H]13)[C@]1(OC(C)=O)[C@H]3[C@@H](OC(=O)c5ccccc5)[C@](O)(C[C@H]34)[C@@H](OC)[C@@H]1O)N(C)C2 [Hypaconitine] | −8.00 | 1.32 | −3.27 | −2.50 | 0.31 | 3.47 | −7.92 | −7.90 | 80.5 ± 2.91 | 47.3 ± 1.33 | 21.2 ± 0.505 | 8.627 ± 0.0519 | 27.6 ± 0.562 | 9.92 ± 0.33 | ≤ 0.75 | 0.5 | 
CCN1CC2(OC(=O)c3ccccc3NC(C)=O)CCC(OC)C34C1C(CC23)C1(O)CC(OC)C2CC4C1(O)C2OC (stereo not shown) [Lappaconitine] |  |  |  |  |  |  |  |  | 2.421 ± 0.0223 | 2.4 ± 0.0276 | 3.83 ± 0.791 | 4.47 ± 0.0814 | 4.71 ± 0.206 | 1.28 ± 0.121 | ≤ 0.75 | 0.5 | Stability RE % ([1]; Automatic (24 h), plasma QC 3.125 ng/mL): −0.82%; Stability RE % ([1]; Automatic (24 h), plasma QC 25 ng/mL): −7.41%; Stability RE % ([1]; Freeze (−80°C for 30 d), plasma QC 3.125 ng/mL): −0.68%; Stability RE % ([1]; Freeze (−80°C for 30 d), plasma QC 25 ng/mL): −9.65%; Stability RE % ([1]; Freeze-thaw (three times), plasma QC 3.125 ng/mL): −2.04%; Stability RE % ([1]; Freeze-thaw (three times), plasma QC 25 ng/mL): −10.40%; Stability RE % ([1]; Room temperature (8 h), plasma QC 3.125 ng/mL): −0.52%; Stability RE % ([1]; Room temperature (8 h), plasma QC 25 ng/mL): −6.67%
COCC12CN(C)C3C4C(OC)C1C3(C(OC)CC2O)C1CC2(O)C(OC)C(O)C4(OC(C)=O)C1C2OC(=O)c1ccccc1 (stereo not shown) [Mesaconitine] | −9.09 | −9.89 | −7.23 | −9.46 | −1.29 | −7.50 | 0.97 | −12.74 | 8.11 ± 0.46 | 7.7 ± 0.411 | 5.35 ± 0.562 | 5.69 ± 0.188 | 7.03 ± 0.479 | 1.71 ± 0.0446 | ≤ 0.75 | 0.75 | 
